Reference: PubChem BioAssay (NCI)
Values joined by “and” are separate entries in the source; they are usually repeats but may differ in a detail not shown here. Equal values may be shown once.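 Five concentrations, 48 hours, 96-well plates. GI50 is the concentration that inhibits growth by half. TGI is the concentration that stops growth completely.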

Columns and labels:
Experiment in all cases: DTP human tumour cell line panel, 48 h
HCT-116 colon = test system: HCT-116 colon
OVCAR-3 ovarian = test system: OVCAR-3 ovarian
UO-31 renal = test system: UO-31 renal
SF-268 CNS = test system: SF-268 CNS
SW-620 colon = test system: SW-620 colon
LOX IMVI melanoma = test system: LOX IMVI melanoma
ACHN renal = test system: ACHN renal
UACC-62 melanoma = test system: UACC-62 melanoma
SR leukemia = test system: SR leukemia
DU-145 prostate = test system: DU-145 prostate

Compound | TGI (HCT-116 colon) | TGI (OVCAR-3 ovarian) | TGI (UO-31 renal) | TGI (SF-268 CNS) [µM] | TGI (SW-620 colon) | TGI (LOX IMVI melanoma) [µM] | TGI (ACHN renal) | TGI (UACC-62 melanoma) [µM] | GI50 (OVCAR-3 ovarian) | GI50 (UO-31 renal) | TGI (SR leukemia) | GI50 (ACHN renal) | GI50 (DU-145 prostate) | TGI (DU-145 prostate) [µM] | GI50 (UACC-62 melanoma) [nM] | GI50 (HCT-116 colon) [µM] | GI50 (SW-620 colon) [µM] | GI50 (LOX IMVI melanoma) [µM] | GI50 (SR leukemia) [nM] | GI50 (SF-268 CNS) [µM]
CO[C@H]1C[C@H](O[C@H]2CC[C@@]3(C)[C@H](CC[C@@H]4[C@@H]3CC[C@]3(C)[C@@H](C5=CC(=O)OC5)CC[C@]43O)C2)O[C@H](C)[C@H]1O | 0.0161 µM | < 0.0194 µM | 0.0217 µM | 0.0188 | 0.113 µM | 0.0159 | 0.0101 µM | 0.031 |  |  |  |  |  |  |  |  |  |  |  | 
NN=C1/C(=C\c2ccccc2)CCC/C1=C/c1ccccc1 | > 100 µM | > 100 µM | 94.2 µM | > 100 | > 100 µM | 54.3 | > 100 µM | > 100 |  |  |  |  |  |  |  |  |  |  |  | 
CC1(C)C2CC(=O)C1(C)C(OCc1ccccc1)C2Br (stereo unspecified) | 39.8 µM and > 100 µM | 37.1 µM and > 100 µM | 75.1 µM and > 100 µM | > 100 | 47 µM and > 100 µM |  | > 100 µM | > 100 | 19.3 µM and 53.4 µM | 29.5 µM and 62 µM | 52.8 µM and 66.1 µM | 38.5 µM and 93.9 µM | 29.7 µM and 86.8 µM | > 100 |  |  |  |  |  | 
NP1(Oc2ccc(F)cc2)=NP(N)(Oc2ccc(F)cc2)=NP(Oc2ccc(F)cc2)(Oc2ccc(F)cc2)=N1 (stereo unspecified) | 15.7 µM | 16 µM | 14.2 µM | 26.7 | 24.8 µM | 19.7 | 12.1 µM |  |  |  | 15.6 µM |  |  | 20.1 |  |  |  |  |  | 
O=C1c2c(c3c4ccccc4n(CC4CO4)c3c3[nH]c4ccccc4c23)C(=O)N1Cc1ccccc1 (stereo unspecified) | > 100 µM | > 100 µM | > 100 µM | > 100 | > 100 µM | > 100 |  | > 100 |  |  | > 100 µM |  |  |  |  |  |  |  |  | 
COc1ccc2c(Cl)cc(NC(=S)Nc3ccccc3)nc2c1 | 49.1 µM | > 100 µM |  | 57.2 | 69.1 µM | 44 | > 100 µM | 46.4 |  |  | 74.5 µM |  |  | > 100 |  |  |  |  |  | 
N/N=C1/C(=O)N(c2ccc(Cl)cc2)C(=O)C(=O)C1c1nc2ccccc2s1 (stereo unspecified) | > 100 µM | > 100 µM | > 100 µM | > 100 | > 100 µM | > 100 | > 100 µM | > 100 |  |  |  |  |  |  |  |  |  |  |  | 
CCOC(=O)C1=C(C)N(NC(=O)Nc2ccccc2)C2(N)N(NC(=O)Nc3ccccc3)C(C)=C(C(=O)OCC)C12C#N (stereo unspecified) | 31.2 µM | 32.2 µM | > 100 µM | 42.8 | 36.2 µM | 34 | 51.4 µM | 32.2 |  |  |  |  |  |  |  |  |  |  |  | 
CC1=Nc2ccccc2S/C1=C1/C=NC(=NC#N)N=C1C(=O)Nc1cccc(Cl)c1 | > 100 µM | > 100 µM | > 100 µM | > 100 | > 100 µM | > 100 | > 100 µM | > 100 |  |  | > 100 µM |  |  |  |  |  |  |  |  | 
C#Cc1c(C)c(/C=C/C(C)=C\C(=O)OC)n(C)c1C |  | > 100 µM | > 100 µM | > 100 | > 100 µM | > 100 | > 100 µM | > 100 |  |  |  |  |  |  |  |  |  |  |  | 
N#Cc1c(N)oc2cc3c(C#N)c(N)oc3cc12 |  | > 100 µM | > 100 µM | > 100 | > 100 µM | > 100 | > 100 µM | > 100 |  |  |  |  |  |  |  |  |  |  |  | 
CC1OC(O[C@@H]2C=C3CC[C@@H]4[C@H](CC[C@]5(C)[C@@H](c6ccc(=O)oc6)CC[C@]45O)[C@@]3(C)CC2)C(O)C(O)C1O (stereo partly specified) | 0.0017 µM | 0.00262 µM and 0.000359 µM | 0.00205 µM | 0.00353 |  |  | 0.003 µM and 0.000431 µM | 0.003 |  |  | 0.00115 µM | 0.00478 µM |  | 0.0153 | 2.16 |  |  |  |  | 
CCN(CC)c1ccc(N=Nc2ccc(-c3nc4cccnc4s3)cc2)cc1 | > 100 µM | > 100 µM | > 100 µM | > 100 | > 100 µM |  | > 100 µM | > 100 |  |  | > 100 µM |  |  |  |  |  |  |  |  | 
CC(C)(c1ccc(C=O)o1)c1ccc(C(C)(C)c2ccc(C=O)o2)o1 | > 100 µM |  |  | > 100 | > 100 µM | > 100 | > 100 µM |  |  |  | > 100 µM |  |  |  |  |  |  |  |  | 
COc1cc(O)c(C(=O)C2Cc3ccccc32)c(OC)c1 (stereo unspecified) | > 100 µM |  | > 100 µM | > 100 | > 100 µM | > 100 | > 100 µM | > 100 |  |  |  |  |  |  |  |  |  |  |  | 
Cc1nc2ccccc2c(=O)n1/N=C(\N=Nc1cc(Cl)ccc1Cl)c1ccc(N(C)C)cc1 | > 100 µM |  | > 100 µM | > 100 | > 100 µM | > 100 | > 100 µM | > 100 |  |  |  |  |  |  |  |  |  |  |  | 
O=C(O)CCCCCNCc1cc2cc3c(cc2c2cc(OCc4ccccc4)ccc12)OCO3 | 3.48 µM | 5.06 µM | 13.9 µM |  | 3.1 µM | 3.1 | 13.2 µM | 3.44 | 2.11 µM | 4.01 µM | 5.3 µM | 3.48 µM | 2.37 µM | 5.47 | 1800 | 1.58 | 1.5 | 1.62 | 1700 | 
O=C(CC1(O)C(=O)Nc2ccccc21)c1cccc(O)c1 (stereo unspecified) | > 100 µM | > 100 µM | > 100 µM | > 100 | > 100 µM | > 100 | > 100 µM | > 100 |  |  |  |  |  |  |  |  |  |  |  | 
C=C(C)[C@@H]1CC[C@]2(C(=O)O)CC[C@]3(C)[C@H](CC[C@@H]4[C@@]5(C)CCC(N)C(C)(C)[C@@H]5CC[C@]43C)[C@@H]12 (stereo partly specified) |  | 3.66 µM |  |  |  |  | 5.32 µM | 3.55 | 1.9 µM |  |  | 2.2 µM | 3.07 µM | > 100 | 1920 |  |  |  |  | 
CC(=O)[CH-]C(=O)c1ccccc1.CC(=O)[CH-]C(=O)c1ccccc1.Cl.[O-]CCc1ccccn1.[O-]CCc1ccccn1.[Ti+4] | 55.6 µM | > 100 µM | 47.4 µM | 75.4 | > 100 µM | > 100 | > 100 µM | > 100 | 32.3 µM | 17.4 µM |  | 33.4 µM |  |  | 23600 | 18.9 | 29.5 | 25.6 |  | 25.8
C(=C\c1ccc2ccccc2c1Nc1ccccc1)/c1ccccc1 | 46.4 µM | 60.4 µM | > 72.2 µM | > 100 | > 100 µM | > 100 | > 63.9 µM | > 100 |  |  | 33.6 µM |  |  |  |  |  |  |  |  | 
